Measured values reported in EPA's ToxRefDB 2.

Assays:
mouse [1] = conditions: Carcinogenicity; b6c3f1; Oral; Gavage/Intubation; dose end: 103 week; group: systemic; systemic / pathology microscopic / kidney / inflammation + systemic / pathology microscopic / liver / cytomegaly + systemic / pathology …
rat [2] = conditions: Sub-acute repeat dose toxicity, fischer, Oral, Gavage/Intubation, dose end: 16 day, group: systemic
mouse [3] = conditions: Sub-acute repeat dose toxicity, b6c3f1, Oral, Gavage/Intubation, dose end: 16 day, group: systemic
rat [4] = conditions: Carcinogenicity, fischer, Oral, Gavage/Intubation, dose end: 103 week, group: systemic
rat [5] = conditions: Subchronic oral toxicity in rodents, fischer, Gavage/Intubation, dose end: 13 week, group: systemic, systemic / in life observation / clinical signs / lethargy + systemic / in life observation / mortality / mortality
mouse [6] = conditions: Subchronic oral toxicity in rodents, b6c3f1, Gavage/Intubation, dose end: 13 week, group: systemic
[7] = systemic / in life observation / body weight / body weight
[8] = systemic / in life observation / clinical signs / lethargy
[9] = systemic / in life observation / body weight / body weight + systemic / in life observation / clinical signs / abnormal movements + systemic…
[10] = systemic / pathology microscopic / kidney / hyperplasia + systemic / pathology microscopic / kidney / mineralization
[11] = systemic / pathology microscopic / kidney / hyperplasia + systemic / pathology microscopic / kidney / mineralization + systemic / pathology …
[12] = systemic / in life observation / mortality / mortality
[13] = systemic / in life observation / mortality / mortality + systemic / in life observation / body weight / body weight

In the case of `CC1=CC(=O)CC(C)(C)C1` [Isophorone], the LEL (mouse [1]) is reported as 250 mg/kg/day, the LOAEL (mouse [1]) is reported as 250 mg/kg/day and the NEL (mouse [1]) is reported as < 250 mg/kg/day. For the same molecule, the NOAEL (mouse [1]) was < 250 mg/kg/day, the LOAEL (rat [2]; [7]) was 1000 mg/kg/day and the LEL (rat [2]; [8]) was 125 mg/kg/day. For the same molecule, the NEL (rat [2]; [8]) was < 125 mg/kg/day, the NOAEL (rat [2]; systemic / in life observation / clinical signs / lethargy + systemic / in life observation / body weight / body weight + systemic / in life…) was 500 mg/kg/day and the LEL (mouse [3]; [7]) was 250 mg/kg/day. It also gave an LOAEL (mouse [3]; [7]) of 250 mg/kg/day, an NEL (mouse [3]; [9]) of 125 mg/kg/day and an NOAEL (mouse [3]; [9]) of 125 mg/kg/day. The LOAEL (rat [4]; [10]) was 250 mg/kg/day, the NOAEL (rat [4]; [10]) was < 250 mg/kg/day and the LEL (rat [4]; [11]) was 250 mg/kg/day. For the same molecule, the NEL (rat [4]; [11]) was < 250 mg/kg/day, the LEL (rat [5]) was 1000 mg/kg/day and the LOAEL (rat [5]) was > 1000 mg/kg/day. The NEL (rat [5]) was 500 mg/kg/day, the NOAEL (rat [5]) was ≥ 1000 mg/kg/day and the LEL (mouse [6]; [12]) was 1000 mg/kg/day. For the same molecule, the NEL (mouse [6]; [12]) was 500 mg/kg/day, the LOAEL (mouse [6]; [13]) was > 1000 mg/kg/day and the NOAEL (mouse [6]; [13]) was ≥ 1000 mg/kg/day.
